The supplement of paper PMC11061612

Key:
Experiment in all cases: combination Emax (second highest fraction inhibited in the dose matrix, 72 h); higher = more inhibition; extreme values may be limits of the assay
[1] = test system: CGTH-W-1 (Thyroid Gland Carcinoma)
Procedure, shortened: (§1)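 Cell lines grown in DMEM/F12 or RPMI with 10% FBS were plated in 1536-well plates and held 24 hours at 37°C, 5% CO2 before 72 hours of exposure to two-drug dose matrices, with DMSO typically at 0.2%. CellTiter-Glo 2.0 luminescence gave viability, which was converted to inhibition. Vehicle wells were set to 0 and blank wells to 1. Combination Emax is the second-highest inhibition in the matrix, and Bliss excess is the observed combination effect minus the expected EA + EB − EA·EB, where EA and EB are the single-agent effects.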

WM1552C (Melanoma) = test system: WM1552C (Melanoma)
Procedure, shortened: as §1

[2] = test system: LU-165 (Small Cell Lung Carcinoma)
Procedure, shortened: as §1

IM-9 (Non-Cancerous) = test system: IM-9 (Non-Cancerous)
Procedure, shortened: as §1

EB2 (Burkitt's Lymphoma) = test system: EB2 (Burkitt's Lymphoma)
Procedure, shortened: as §1

[3] = test system: NCI-H1703 (Squamous Cell Lung Carcinoma)
Procedure, shortened: as §1

[4] = test system: NCI-H2087 (Lung Adenocarcinoma)
Procedure, shortened: as §1

769-P (Kidney Carcinoma) = test system: 769-P (Kidney Carcinoma)
Procedure, shortened: as §1

[5] = test system: JHH-2 (Hepatocellular Carcinoma)
Procedure, shortened: as §1

[6] = test system: KYSE-220 (Esophageal Squamous Cell Carcinoma)
Procedure, shortened: as §1

[7] = test system: A2780 (Ovarian Carcinoma)
Procedure, shortened: as §1

[8] = test system: MDA-MB-436 (Breast Carcinoma)
Procedure, shortened: as §1

[9] = test system: NCI-H1651 (Lung Adenocarcinoma)
Procedure, shortened: as §1

PEO1 (Ovarian Carcinoma) = test system: PEO1 (Ovarian Carcinoma)
Procedure, shortened: as §1

[10] = test system: SK-HEP-1 (Hepatocellular Carcinoma)
Procedure, shortened: as §1

[11] = test system: MHH-ES-1 (Ewing's Sarcoma)
Procedure, shortened: as §1

[12] = test system: HCC1395 (Breast Carcinoma)
Procedure, shortened: as §1

[13] = test system: NCI-H441 (Lung Adenocarcinoma)
Procedure, shortened: as §1

EW-7 (Ewing's Sarcoma) = test system: EW-7 (Ewing's Sarcoma)
Procedure, shortened: as §1

[14] = test system: SW620 (Colorectal Carcinoma)
Procedure, shortened: as §1

| Structure (SMILES) | combination Emax [1] | combination Emax (WM1552C (Melanoma)) | combination Emax [2] | combination Emax (IM-9 (Non-Cancerous)) | combination Emax (EB2 (Burkitt's Lymphoma)) | combination Emax [3] | combination Emax [4] | combination Emax (769-P (Kidney Carcinoma)) | combination Emax [5] | combination Emax [6] | combination Emax [7] | combination Emax [8] | combination Emax [9] | combination Emax (PEO1 (Ovarian Carcinoma)) | combination Emax [10] | combination Emax [11] | combination Emax [12] | combination Emax [13] | combination Emax (EW-7 (Ewing's Sarcoma)) | combination Emax [14] |
| --- | --- | --- | --- | --- | --- | --- | --- | --- | --- | --- | --- | --- | --- | --- | --- | --- | --- | --- | --- | --- |
| CN(CCO)CC[C@H](CSc1ccccc1)Nc1ccc(S(=O)(=O)NC(=O)c2ccc(N3CCC([C@@H](O)c4ccccc4-c4ccc(Cl)cc4)CC3)cc2)cc1S(=O)(=O)C(F)(F)F [AZD4320] + Cn1cnc2c(F)c(Nc3ccc(Br)cc3Cl)c(C(=O)NOCCO)cc21 [Selumetinib] (first compound max 1 µM, 7x7, partner max 3 µM) | 0.342 | 0.558 | 0.748 | 1 | 0.377 | 0.298 | 0.908 | 0.36 | 0.452 | 0.505 | 0.512 | 0.335 | 0.39 | 0.582 | 0.603 | 0.951 | 0.281 | 0.522 | 0.968 | 0.942 |
| Cc1cc2ncnn2cc1Nc1ncc2c(n1)n(C1CCOCC1)c(=O)n2C [AZD7648] + C[C@@H]1COCCN1C2=NC(=NC(=C2)C3(CC3)[S@](=N)(=O)C)C4=C5C=CNC5=NC=C4 [AZD6738] (first compound max 10 µM, 7x7, partner max 10 µM) | 0.317 | 0.633 | 0.317 | 0.964 | 0.803 | 0.901 | 0.583 | 0.819 | 0.736 | 0.91 | 0.806 | 0.362 | 0.536 | 0.482 | 0.382 | 0.565 | 0.748 | 0.478 | 0.924 | 0.437 |
| C[C@@H](c1ccc2nccn2c1)n1nnc2ncc(-c3cnn(C)c3)nc21 [Savolitinib] + CN(CC[C@H](CSC1=CC=CC=C1)NC2=C(C=C(C=C2)S(=O)(=O)NC(=O)C3=CC=C(C=C3)N4CCC(CC4)[C@H](C5=CC=CC=C5C6=CC=C(C=C6)Cl)O)S(=O)(=O)C(F)(F)F)CCO [AZD4320] (first compound max 1 µM, 7x7, partner max 1 µM) | – | – | – | – | – | – | – | – | – | – | – | – | – | – | – | 0.404 | – | – | – | 0.207 |
| CN(CCO)CC[C@H](CSc1ccccc1)Nc1ccc(S(=O)(=O)NC(=O)c2ccc(N3CCC([C@@H](O)c4ccccc4-c4ccc(Cl)cc4)CC3)cc2)cc1S(=O)(=O)C(F)(F)F [AZD4320] + C[C@@H]1COCCN1C2=NC(=NC(=C2)C3(CC3)[S@](=N)(=O)C)C4=C5C=CNC5=NC=C4 [AZD6738] (first compound max 1 µM, 7x7, partner max 10 µM) | 0.424 | 0.73 | 0.776 | 1 | 0.835 | 0.892 | 0.919 | 0.966 | 0.792 | 0.877 | 0.799 | 0.34 | 0.728 | 0.686 | 0.411 | 0.85 | 0.819 | 0.69 | 1 | 0.793 |
| CN(CCO)CC[C@H](CSc1ccccc1)Nc1ccc(S(=O)(=O)NC(=O)c2ccc(N3CCC([C@@H](O)c4ccccc4-c4ccc(Cl)cc4)CC3)cc2)cc1S(=O)(=O)C(F)(F)F [AZD4320] + C[C@@H](Nc1cc(F)cc(F)c1)c1cc(C(=O)N(C)C)cc2c(=O)cc(N3CCOCC3)oc12 [AZD8186] (first compound max 1 µM, 7x7, partner max 3 µM) | 0.476 | 0.424 | 0.717 | 0.972 | 0.536 | 0.531 | 0.773 | 0.341 | 0.77 | 0.35 | 0.543 | 0.459 | 0.411 | 0.613 | 0.778 | 0.946 | 0.476 | 0.573 | 0.947 | 0.84 |
| CN(CCO)CC[C@H](CSc1ccccc1)Nc1ccc(S(=O)(=O)NC(=O)c2ccc(N3CCC([C@@H](O)c4ccccc4-c4ccc(Cl)cc4)CC3)cc2)cc1S(=O)(=O)C(F)(F)F [AZD4320] + C=CCn1c(=O)c2cnc(Nc3ccc(N4CCN(C)CC4)cc3)nc2n1-c1cccc(C(C)(C)O)n1 [AZD1775] (first compound max 1 µM, partner max 1 µM) | 0.106 | 0.471 | 0.681 | 1 | 0.866 | 0.972 | 0.68 | 0.962 | 0.604 | 0.795 | 0.666 | 0.196 | 0.746 | 0.529 | 0.327 | 0.947 | 0.69 | 0.552 | 1 | 0.931 |
